From patent US8846668B2, “Inhibitors of 11beta-hydroxysteroid dehydrogenase 1” (Vitae Pharmaceuticals, Inc., priority 2008, dated 2014)

Columns and labels:
[1] = molecular target: T1, human 11β-HSD1 (microsomes isolated from CHO cells overexpressing human 11β-HSD1) (Homo sapiens, UniProt P28845); assay: Inhibition of a microsomal preparation of 11β-HSD1, scintillation proximity assay; type: biochemical; conditions: microsomes from CHO cells overexpressing human 11β-HSD1; [3H]cortisone, SPA, 90 minutes at rt
T1 construct: expressed in transfected cells; host or cells: CHO cells (microsomes)

[2] = molecular target: T2, 11β-HSD1 (human liver microsomes) (Homo sapiens, UniProt P28845); assay: In vitro inhibition of 11β-HSD1, HTRF detection of cortisol generated by human liver microsomes; type: biochemical; conditions: 100% indicates no inhibition, zero or below zero indicates complete inhibition; for remaining activity at 0.1 µM: 100 nM inhibitor, 1 hour at 37° C., read-out: Average % control inhibition at 100 nM; for remaining activity at 1 µM: 1 μM inhibitor (footnote *), read-out: Average % control inhibition (1 μM inhibitor concentration)
T2 construct: detecting cortisol generated from cortisterone by human liver microsomes; from tissue; host or cells: human liver microsomes
T2 sequence (P28845 whole entry): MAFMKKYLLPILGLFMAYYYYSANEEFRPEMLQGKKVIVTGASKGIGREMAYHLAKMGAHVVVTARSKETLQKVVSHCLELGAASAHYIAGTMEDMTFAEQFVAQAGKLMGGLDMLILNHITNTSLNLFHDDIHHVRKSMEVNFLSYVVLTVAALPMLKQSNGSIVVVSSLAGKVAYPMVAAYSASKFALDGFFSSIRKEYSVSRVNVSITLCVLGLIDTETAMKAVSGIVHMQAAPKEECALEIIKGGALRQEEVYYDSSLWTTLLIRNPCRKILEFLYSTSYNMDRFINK

T1 sequence (P28845 whole entry): as above

| remaining activity at 0.1 µM [2] [%] | Structure (SMILES) | other results |
| --- | --- | --- |
| 93 | C[C@@H](c1ccc(C2CCNCC2)cc1)N1CC[C@](CC(C)(C)O)(c2ccccc2)OC1=O [Example 18, (S)-6-(2-Hydroxy-2-methyl-propyl)-6-phenyl-3-[(S)-1-(4-piperidin-4-yl-phenyl)-ethyl]-[1,3]oxazinan-2-one] |  |
| 97 | C[C@@H](c1ccc(C2CCN(C)CC2)cc1)N1CC[C@](CC(C)(C)O)(c2ccccc2)OC1=O [Example 21, (S)-6-(2-Hydroxy-2-methyl-propyl)-3-{(5)-1-[4-(1-methyl-piperidin-4-yl)-phenyl]-ethyl}-6-phenyl-[1,3]oxazinan-2-one] |  |
| 17 | C[C@@H](c1ccc(C2CCN(S(C)(=O)=O)CC2)cc1)N1CC[C@](CC(C)(C)O)(c2ccccc2)OC1=O [Example 22, (S)-6-(2-Hydroxy-2-methyl-propyl)-3-{(S)-1-[4-(1-methanesulfonyl-piperidin-4-yl)-phenyl]-ethyl}-6-phenyl-[1,3]oxazinan-2-one] |  |
| 1 | CNC(=O)N1CCC(c2ccc([C@H](C)N3CC[C@](CC(C)(C)O)(c4ccccc4)OC3=O)cc2)CC1 [Example 35, 4-(4-{(S)-1-[(S)-6-(2-Hydroxy-2-methyl-propyl)-2-oxo-6-phenyl-[1,3]oxazinan-3-yl]-ethyl}-phenyl)-piperidine-1-carboxylic acid methylamide] |  |
| 31 | C[C@@H](c1ccc(C2CCN(C(=O)N(C)C)CC2)cc1)N1CC[C@](CC(C)(C)O)(c2ccccc2)OC1=O [Example 36, 4-((S)-4-{1-[(S)-6-(2-Hydroxy-2-methyl-propyl)-2-oxo-6-phenyl-[1,3]oxazinan-3-yl]-ethyl}-phenyl)-piperidine-1-carboxylic acid dimethylamide] |  |

Second part, the compound before the results:

| Structure (SMILES) | remaining activity at 0.1 µM [2] [%] | other results |
| --- | --- | --- |
| Cc1nc2cc(-c3ccc([C@H](C)N4CCC(CC(C)(C)O)(C(C)C)OC4=O)cc3)ccc2n1C (single isomer, unassigned) [Example 37] |  | IC50 [1]: 6.9 nM |
| CCNC(=O)c1ccc(-c2ccc([C@H](C)N3CC[C@](CC(C)(C)O)(c4ccccc4)OC3=O)cc2)cn1 [Example 15, 5-(4-{(S)-1-[(S)-6-(2-Hydroxy-2-methyl-propyl)-2-oxo-6-phenyl-[1,3]oxazinan-3-yl]-ethyl}-phenyl)-pyridine-2-carboxylic acid ethylamide] | -34 |  |
| CNC(=O)c1ccc(-c2ccc([C@H](C)N3CC[C@](CC(C)(C)O)(c4ccccc4)OC3=O)cc2)cn1 [Example 16, 5-(4-{(S)-1-[(S)-6-(2-Hydroxy-2-methyl-propyl)-2-oxo-6-phenyl-[1,3]oxazinan-3-yl]-ethyl}-phenyl)-pyridine-2-carboxylic acid methylamide] | -24 |  |
| C[C@@H](c1ccc(-c2ccc(C(=O)N(C)C)nc2)cc1)N1CC[C@](CC(C)(C)O)(c2ccccc2)OC1=O [Example 17, (4-{(S)-1-[(S)-6-(2-Hydroxy-2-methyl-propyl)-2-oxo-6-phenyl-[1,3]oxazinan-3-yl]-ethyl}-phenyl)-pyridine-2-carboxylic acid dimethylamide] | -10 |  |
| C[C@@H](c1ccc(C2CCN(C(=O)[C@@H]3CCCO3)CC2)cc1)N1CC[C@](CC(C)(C)O)(c2ccccc2)OC1=O [Example 23, (S)-6-(2-Hydroxy-2-methyl-propyl)-6-phenyl-3-((S)-1-{4-[1-((S)-tetrahydro-furan-2-carbonyl)-piperidin-4-yl]-phenyl}-ethyl)-[1,3]oxazinan-2-one] | 44 |  |
| C[C@@H](c1ccc(C2CCN(C(=O)[C@H]3CCCO3)CC2)cc1)N1CC[C@](CC(C)(C)O)(c2ccccc2)OC1=O [Example 24, (S)-6-(2-Hydroxy-2-methyl-propyl)-6-phenyl-3-((S)-1-{4-[1-((R)-tetrahydro-furan-2-carbonyl)-piperidin-4-yl]-phenyl}-ethyl)-[1,3]oxazinan-2-one] | 53 |  |
| C[C@@H](c1ccc(C2CCN(C(=O)C(C)(C)O)CC2)cc1)N1CC[C@](CC(C)(C)O)(c2ccccc2)OC1=O [Example 25, (S)-6-(2-Hydroxy-2-methyl-propyl)-6-phenyl-3-((S)-1-{4-[1-(2-hydroxy-2-propyl-carbonyl)-piperidin-4-yl]-phenyl}-ethyl)-[1,3]oxazinan-2-one] | 71 |  |
| C[C@@H](c1ccc(C2CCN(C(=O)[C@@H]3CCCN3C)CC2)cc1)N1CC[C@](CC(C)(C)O)(c2ccccc2)OC1=O [Example 26, (S)-6-(2-Hydroxy-2-methyl-propyl)-3-((S)-1-{4-[1-((S)-1-methyl-pyrrolidine-2-carbonyl)-piperidin-4-yl]-phenyl}-ethyl)-6-phenyl-[1,3]oxazinan-2-one] | 80 |  |
| C[C@@H](c1ccc(C2CCN(C(=O)[C@H]3CCCN3C)CC2)cc1)N1CC[C@](CC(C)(C)O)(c2ccccc2)OC1=O [Example 27, (S)-6-(2-Hydroxy-2-methyl-propyl)-3-((S)-1-{4-[1-((R)-1-methyl-pyrrolidine-2-carbonyl)-piperidin-4-yl]-phenyl}-ethyl)-6-phenyl-[1,3]oxazinan-2-one] | 86 |  |
| C[C@@H](c1ccc(C2CCN(C)C(=O)C2)cc1)N1CC[C@](CC(C)(C)O)(c2ccccc2)OC1=O (stereo partly drawn) [Example 33, (S)-6-(2-Hydroxy-2-methyl-propyl)-3-{(S)-1-[4-(1-methyl-2-oxo-piperidin-4-yl)-phenyl]-ethyl}-6-phenyl-[1,3]oxazinan-2-one] |  | remaining activity at 1 µM [2]: -27% |
| C[C@@H](c1ccc(C2CCC(=O)N(C)C2)cc1)N1CC[C@](CC(C)(C)O)(c2ccccc2)OC1=O (stereo partly drawn) [Example 34, (S)-6-(2-Hydroxy-2-methyl-propyl)-3-{(S)-1-[4-(1-methyl-6-oxo-piperidin-3-yl)-phenyl]-ethyl}-6-phenyl-[1,3]oxazinan-2-one] |  | remaining activity at 1 µM [2]: -17% |
| CC(C)C1(CC(C)(C)O)CCN([C@@H](C)c2ccc(-c3ccc4c(c3)ncn4C)cc2)C(=O)O1 (stereo partly drawn) [Example 38, 6-(2-hydroxy-2-methylpropyl)-6-isopropyl-3-{(S)-1-[4-(1-methyl-1H-benzo[d]imidazol-5-yl)phenyl]ethyl}-1,3-oxazinan-2-one] |  | IC50 [1]: 7.7 nM |
